From patent publication EP2197879B1, “C7-SUBSTITUTED CAMPTOTHECIN ANALOGS” (priority 2007, dated 2009)
Where two headings read alike, the source gives them in different places.

Tests used:
A2780/DX5 cells = test: Sulforhodamine B (SRB) cytotoxicity assay in A2780/DX5 cells; format: cell-based; conditions: for IC50 Ratio: A2780/DX5 versus A2780/WT
Protocol: (§1) Each of the testing conditions used in this study in both A2780/WT (wild-type) and A2780/DX5 cells were repeated in five to fifteen experiments that were performed on separate days. Each experiment consisted of one microtiter plate with at least eight individual assays of a given drug treatment condition on the plate. The sulforhodamine B (SRB) assay was used to assess cytotoxicity and absorbance at 570 nm (A570) in order to calculate the percentage of cell control (or percent cell survival) for the various treatment conditions in the plate wells.
(§2) Roswell Park Memorial Institute (RPMI 1640) medium, fetal bovine serum (FBS), and L-glutamine were purchased from Gibco BRL. Drugs were dissolved in sterile dimethylsulfoxide (DMSO), from American Type Culture Collection (ATCC) for stock solutions (2.5 to 5.0 mM). Subsequent dilutions were made using cell culture medium (prior to adding the drug to cells). SRB was purchased from Sigma and dissolved in 1.0 percent acetic acid. Trichloroacetic acid was purchased from VWR International.
(§3) Cells were manipulated in a Class IIA/B3 Biological Safety Cabinet (Forma Scientific) and maintained at 37°C in a humidified atmosphere containing 5% CO2 in a water-jacketed cell culture incubator (Forma Scientific). Cells were counted using a Coulter-Z1 counter (Beckman-Coulter). Following drug treatment, plates were washed using a Biomek 2000 station (Beckman) and, following exposure to SRB dye, plates were washed using an automated plate washer (Model EL404, Bio-Tek Instruments). Percentage of control was correlated to A570 values and determined using a Model EL800 plate reader (Bio-Tek Instruments).
(§4) Population doubling times for the two cell lines used in this study encompassed a total of five cell doublings corresponding to approximately 5 days for A2780/WT and A2780/DX5 cells. A2780/WT and A2780/DX5 cells were cultured in RPMI 1640 medium supplemented with 10% fetal bovine serum and 1 mM of L-glutamine. Both cell lines were maintained as monolayered cultures in T-25 or T-75 flasks and then seeded to microtiter plate wells for experiments described herein. Prior to SRB assays, cell viability was monitored by evaluation of microtiter plate wells. Dead cells detach and float while living cells remain attached to the bottom of the cell well.
(§5) The sulforhodamine B (SRB) cytotoxicity assay (see, Skehan P, et al., New colorimetric cytotoxicity assay for anticancer-drug screening. J. Natl. Cancer Inst. 82:1107-1112 (1990)) was used to determine the cytotoxic effects of BNP1350, SN-38, topotecan, 9-NH2-CPT, and 9-NO2-CPT on cell growth in vitro. Briefly, after the medium was aspirated from individual plate wells, trichloroacetic acid (100 µL of 10.0% solution) was added to each well, and the plates were incubated at 4°C for at least 1 hour. The plates were washed five-times with water using an automated microplate washer (Model EL 404, Bio-Tek Instruments), SRB solution (100 µL of 0.4 grams SRB dissolved in 100 mL 1.0 percent acetic acid) was added, and plates remained at room temperature for 15 minutes. The plates were then washed five-times using acetic acid (1.0%), air dried, and bound dye was solubilized in Tris base (150 µL, 10 mM). Plates were agitated (gently) for 5 minutes and the absorbance values of the SRB dye-protein adduct at a 570 nm wavelength (A570) were determined using an automated microtiter plate reader equipped with an A570 filter (Model EL800, BioTek Instruments). Table VII. Summary of Cytotoxicity Experiments in A2780/WT and DX5 Cells

[1] = system: A2780/WT (wild-type) cells; test: Sulforhodamine B (SRB) cytotoxicity assay in A2780/WT cells; format: cell-based
Protocol: as §1, §2, §3, §4, §5

[2] = Homo sapiens, SRB assay, A2780/DX5 cells, read-out: A2780/ DX5 (IC50)
[3] = Homo sapiens, A2780, read-out: A2780/ WT (IC50)
[4] = Homo sapiens, SRB assay, A2780/WT cells, read-out: A2780/ WT (IC50)
[5] = Homo sapiens, A2780, read-out: A2780/ DX5 (IC50)
[6] = SRB assay, A2780/DX5 cells, read-out: A2780/ DX5 (IC50)
[7] = SRB assay, A2780/WT cells, read-out: A2780/ WT (IC50)

Row | SMILES | IC50 Ratio (A2780/DX5 cells) | IC50 (A2780/DX5 cells; [2]) | IC50 [1, 3] | IC50 [1, 4] | IC50 (A2780/DX5 cells; [5]) | IC50 (A2780/DX5 cells; [6]) | IC50 [1, 7]
1 | CC[C@@]1(O)C(=O)OCc2c1cc1n(c2=O)Cc2c-1nc1ccccc1c2CC[Si](C)(C)CSC1=NCCS1 [Compound 34, (4S)-11-{2-[(4,5-dihydro-thiazol-2-ylsulfanylmethyl)-dimethylsilanyl]-ethyl}-4-ethyl-4-hydroxy-1,12-dihydro-4H-2-oxa-6,12a-diaza-dibenzo[b,h]fluorene-3,13-dione] | 2.7 | 55.5 nM | 20.3 nM | – | – | – | –
2 | CC[C@@]1(O)C(=O)OCc2c1cc1n(c2=O)Cc2c-1nc1ccccc1c2CC[Si](C)(C)CSCCO [Compound 35, (4S)-4-ethyl-4-hydroxy-11-{2-[(2-hydroxy-ethylsulfanylmethyl)-dimethyl-silanyl]-ethyl}-1,12-dihydro-4H-2-oxa-6,12a-diaza-dibenzo[b,h]fluorene-3,13-dione] | 2.6 | 21.6 nM | – | 8.2 nM | – | – | –
3 | CC[C@@]1(O)C(=O)OCc2c1cc1n(c2=O)Cc2c-1nc1ccccc1c2CC[Si](C)(C)CNS(=O)(=O)c1ccc(Cl)cc1 [Compound 37, (4S)-4-chloro-N-({[2-(4-ethyl-4-hydroxy-3,13-dioxo-3,4,12,13-tetrahydro-1H-2-oxa-6,12a-diaza-dibenzo[b,h]fluoren-11-yl)-ethyl]-dimethylsilanyl} -methyl)-benzenesulfonamide] | 4.08 | – | 207 nM | – | 845 nM | – | –
4 | CC[C@@]1(O)C(=O)OCc2c1cc1n(c2=O)Cc2c-1nc1ccccc1c2CC[Si](C)(C)CNC(=O)Nc1ccccc1 [Compound 41, (4S)-1-({[2-(4-ethyl-4-hydroxy-3,13-dioxo-3,4,12,13-tetrahydro-1H-2-oxa-6,12a-diaza-dibenzo[b,h]fluoren-11-yl)-ethyl]-dimethylsilanyl}-methyl)-3-phenylurea] | 11.2 | – | 23.2 nM | – | 259 nM | – | –
5 | CCN(CC)C(=O)NC[Si](C)(C)CCc1c2c(nc3ccccc13)-c1cc3c(c(=O)n1C2)COC(=O)[C@]3(O)CC [Compound 43, (4S)-1,1-diethyl-3-({[2-(4-ethyl-4-hydroxy-3,13-dioxo-3,4,12,13-tetrahydro-1H-2-oxa-6,12a-diaza-dibenzo[b,h]fluoren-11-yl)-ethyl]-dimethylsilanyl} -methyl)-urea] | 4.28 | – | 68.9 nM | – | 295 nM | – | –
6 | CC[C@@]1(O)C(=O)OCc2c1cc1n(c2=O)Cc2c-1nc1ccccc1c2CC[Si](C)(C)CNC(=O)N(C)C [Compound 45, (4S)-3-({[2-(4-ethyl-4-hydroxy-3, 13-dioxo-3,4, 12, 13-tetrahydro-1H-2-oxa-6,12a-diaza-dibenzo[b,h]fluoren-11-yl)-ethyl]-dimethylsilanyl}-methyl)-1,1-dimethyl-urea] | 4.9 | 178 nM | – | 36.1 nM | – | – | –
7 | CC[C@@]1(O)C(=O)OCc2c1cc1n(c2=O)Cc2c-1nc1ccccc1c2CC[Si](C)(C)O [Compound 46, (4S)-4-Ethyl-4-hydroxy-11-[2-(hydroxydimethylsilanyl)-ethyl]-1, 12-dihydro-4H-2-oxa-6,12a-diaza-dibenzo[b,h]fluorene-3,13-dione] | 5.0 | 50 nM | – | 10 nM | – | – | –
8 | CCC1(O)C(=O)OCc2c1cc1n(c2=O)Cc2c-1nc1ccccc1c2CC[Si](C)(C)CCC(=O)O (centres unmarked) [Compound 47, 3-{[2-(4-Ethyl-4-hydroxy-3,13-dioxo-3 ,4, 12, 13-tetrahydro-1H-2-oxa-6, 12a-diaza-dibenzo[b,h]fluoren-11-yl)-ethyl]-dimethyl-silanyl}-propionic acid] | 3.1 | 629 nM | – | 200 nM | – | – | –
9 | CCC1(O)C(=O)OCc2c1cc1n(c2=O)Cc2c-1nc1ccccc1c2CC[Si](C)(C)CCC(=O)N(C)C (centres unmarked) [Compound 48, 3-{[2-(4-Ethyl-4-hydroxy-3,13-dioxo-3,4,12,13-tetrahydro-1H-2-oxa-6,12a-diaza-dibenzo[b,h]fluoren-11-yl)-ethyl]-dimethyl-silanyl}-N,N-dimethyl-propionamide] | 3.9 | 164 nM | – | 42.3 nM | – | – | –
10 | CCC1(O)C(=O)OCc2c1cc1n(c2=O)Cc2c-1nc1ccccc1c2CC[Si](C)(C)CCC(=O)NC(CCC(=O)OCc1ccccc1)C(=O)OCc1ccccc1 (centres unmarked) [Compound 49, 2-(3-{[2-(4-Ethyl-4-hydroxy-3, 13-dioxo-3,4, 12, 13-tetrahydro-1H-2-oxa-6,12a-diaza-dibenzo[b,h]fluoren-11-yl)-ethyl]-dimethyl-silanyl}-propionylamino)-pentanedioic acid dibenzyl ester] | – | > 2000 nM | – | > 2000 nM | – | – | –
11 | CCC1(O)C(=O)OCc2c1cc1n(c2=O)Cc2c-1nc1ccccc1c2CC[Si](C)(C)CCC(=O)NC(CCC(=O)O)C(=O)O (centres unmarked) [Compound 50, 2-(3-{[2-(4-Ethyl-4-hydroxy-3, 13-dioxo-3,4, 12, 13-tetrahydro-1H-2-oxa-6, 12a-diaza-dibenzo[b,h]fluoren-11-yl)-ethyl]-dimethyl-silanyl}-propionylamino)-pentanedioic add] | 1699.3 | – | – | – | – | > 2000 nM | 1700 nM
12 | CC[C@@]1(O)C(=O)OCc2c1cc1n(c2=O)Cc2c-1nc1ccccc1c2CC[Si](C)(C)CCCOC(=O)c1ccccc1 [Compound 55, Benzoic acid 3-{[2-(4-ethyl-4-hydroxy-3,13-dioxo-3,4, 12, 13-tetrahydro-1H-2-oxa-6,12a-diaza-dibenzo[b,h]fluoren-11-yl)-ethyl]-dimethylsilanyl}-propyl ester] | 4.6 | 112 nM | – | 24 nM | – | – | –
13 | CC[C@@]1(O)C(=O)OCc2c1cc1n(c2=O)Cc2c-1nc1ccccc1c2CC[Si](C)(C)CCCOC(=O)c1ccco1 [Compound 57, Furan-2-carboxylic acid 3-{[2-(4-ethyl-4-hydroxy-3,13-dioxo-3,4, 12, 13-tetrahydro-1H-2-oxa-6,12a-diaza-dibenzo[b,h]fluoren-11-yl)-ethyl]-dimethyl-silanyl}-propyl ester] | 2.4 | 29.2 nM | – | 12.3 nM | – | – | –
14 | CC[C@@]1(O)C(=O)OCc2c1cc1n(c2=O)Cc2c-1nc1ccccc1c2CC[Si](C)(C)CCCOC(C)=O [Compound 60, Acetic acid 3-{[2-(4-ethyl-4-hydroxy-3,13-dioxo-3,4, 12, 13-tetrahydro-1H-2-oxa-6,12a-diaza-dibenzo[b,h]fluoren-11-yl)-ethyl]-dimethyl-silanyl}-propyl ester] | 3 | 32.1 nM | – | 10.6 nM | – | – | –
15 | CCC1(O)C(=O)OCc2c1cc1n(c2=O)Cc2c-1nc1ccccc1c2CC[Si](C)(C)CCCOC(=O)C1CCC1 (centres unmarked) [Compound 62, Cyclobutanecarboxylic acid 3-{[2-(4-ethyl-4-hydroxy-3, 13-dioxo-3,4, 12, 13-tetrahvdro-1H-2-oxa-6,12a-diaza-dibenzo[b,h]fluoren-11-yl)-ethyl]-dimethyl-silanyl}-propyl ester] | 3.77 | – | – | – | – | 39.2 nM | 10.4 nM
16 | CCC1(O)C(=O)OCc2c1cc1n(c2=O)Cc2c-1nc1ccccc1c2CC[Si](C)(C)CCCOC(=O)C1=CCNO1 (centres unmarked) [Compound 64, 2,3-Dihydro-isoxazole-5-carboxylic acid 3-{[2-(4-ethyl-4-hydroxy-3,13-dioxo-3,4,12,13-tetrahydro-1H-2-oxa-6,12a-diaza-dibenzo[b,h]fluoren-11-yl)-ethyl]-dimethyl-silanyl}-propyl ester] | 4.27 | – | 14 nM | – | 59.8 nM | – | –
